Measured values as given in US12116359B2, “EBNA1 inhibitor crystalline forms, and methods of preparing and using same” (THE WISTAR INSTITUTE, priority 2018, dated 2024).
“Also recorded” adds a separate entry of the source.

What was measured:
Type in all cases: physicochemical
[1] = Gravimetric vapour sorption (GVS); details: for Hygroscopicity: GVS, 0-90% RH
Procedure: Sorption isotherms were obtained using a SMS DVS Intrinsic moisture sorption analyzer, controlled by DVS Intrinsic Control software. The sample temperature was maintained at 25° C. by instrument controls. The humidity was controlled by mixing streams of dry and wet nitrogen, with a total flow rate of 200 ml/min. The relative humidity was measured by a calibrated Rotronic probe (dynamic range of 1.0-100% RH), located near the sample. The weight change (mass relaxation) of the sample as a function of % RH was constantly monitored by the microbalance (accuracy ±0.005 mg). Typically 5-20 mg of sample was placed in a tared mesh stainless steel basket under ambient conditions. The sample was loaded and unloaded at 40% RH and 25° C. (typical room conditions). A moisture sorption isotherm was performed as outlined below (2 scans giving 1 complete cycle). The standard isotherm was performed at 25° C. at 10% RH intervals over a 0-90% RH range. Data analysis was carried out using Microsoft Excel. The sample was recovered after completion of the isotherm and re-analyzed by XRPD.

[2] = Storage stability of solid forms at elevated temperature/humidity (XRPD, HPLC purity); details: 25° C./97% RH, one week; listed as Crystalline Pattern 5
[3] = as above; details: one week
Procedure: Purity analysis was performed on an Agilent HP1100 series system equipped with a diode array detector and using ChemStation software vB.04.03 using the method detailed in Table 1.
Amorphous (I) free acid was stored at 40° C./75% RH (open vial), 25° C./97% RH (open vial) and 60° C. (closed vial, ambient humidity) for 8 weeks.
Characterization by XRPD, ^1H NMR, TGA, DSC and storage at 40° C./75% RH for one week was carried out. Details are found in Table 10.

[4] = Variable temperature XRPD; details: 25-165° C.
Procedure: Samples run under non-ambient conditions were mounted on a silicon wafer with heat-conducting compound. The sample was then heated to the appropriate temperature at 30° C./min and subsequently held isothermally for 1 minute before data collection was initiated.

[5] = Stability assessment of Pattern 5 slurried in solvents at 4 or 50° C.; details: for Solid form recovered in stability assessment: 4 and 50° C., 8 solvents including solvent mixtures, XRPD; for Observations Overnight at 4° C. maturation / Observations Overnight at 50° C. maturation: 16 h
Procedure: The aim of this set of experiments was to test the stability of Pattern 5 in different conditions by slurring the material at either 4 or 50° C. in a range of 8 selected solvents including mixtures.
The supplied material was dissolved or suspended in the chosen solvent at r.t. Solvents were added in 10 vol. aliquots up to 30 vol. and observations were recorded; if a solution was obtained at any point then no further additions were made. Samples were kept at 4° C. or 50° C. over 16 h, and analyzed by XRPD. The solids were filtered and analyzed by XRPD. The solutions were allowed to evaporate at r.t. to afford solids which were also analyzed by XRPD.

[6] = listed as Crystalline Pattern 5
[7] = EtOAc, solid after evaporation at r.t.
[8] = EtOAc/EtOH (1:3), solid after evaporation at r.t.
[9] = EtOAc/EtOH (3:1), solid after evaporation at r.t.

## O=C(O)c1cccc(C#Cc2ccc(COC3CCOCC3)cc2)c1-c1ccc2cc[nH]c2c1 [Pattern 5, 2-(1H-Indol-6-yl)-3-[4-(tetrahydro-pyran-4-yloxymethyl)-phenylethynyl]-benzoic acid]
[1]
  Hygroscopicity: non-hygroscopic
[1]; [6]
  Hygroscopicity: non-hygroscopic; also recorded: not hygroscopic
[1]; after 0-90% RH isotherm, listed as Crystalline Pattern 5
  XRPD after GVS: Unchanged by XRPD
[1]; between 0-90% RH, 25° C., listed as Crystalline Pattern 5
  GVS moisture uptake: 0.3%
[2]
  XRPD post 25° C./97% RH: No change in crystalline form; also recorded: Unchanged
[3]; 25° C./97% RH
  XRPD post 25° C./97% RH: remained unchanged by XRPD
[3]; 25° C./97% RH, initial purity 98.3% A.U.C.
  HPLC Purity after storage at 25° C./97% RH (Pharmorphix generic method): 98.0 % A.U.C.
[3]; 40° C./75% RH
  XRPD post 40° C./75% RH: remained unchanged by XRPD
[3]; 40° C./75% RH, initial purity 98.3% A.U.C.
  HPLC Purity after storage at 40° C./75% RH (Pharmorphix generic method): 98.0 % A.U.C.
[3]; 40° C./75% RH, listed as Crystalline Pattern 5
  XRPD post 40° C./75% RH: No change in crystalline form; also recorded: Unchanged
[4]
  Variable temperature XRPD: remained as Pattern 5
[4]; [6]
  Variable temperature XRPD: Remained as Pattern 5 from 25-165 °C
[5]
  Solid form recovered in stability assessment: no change in solid form
[5]; [6]
  Solid form recovered in stability assessment: Pattern 5 being recovered in all cases
[5]; EtOAc
  Observations Overnight at 4° C. maturation: solution
  Observations Overnight at 50° C. maturation: solution
[5]; [7]
  XRPD after stability assessment at 4° C.: Pattern 5
  XRPD after stability assessment at 50° C.: Pattern 5
[5]; EtOAc/EtOH (1:3)
  Observations Overnight at 4° C. maturation: solution
  Observations Overnight at 50° C. maturation: solution + yellow solid
[5]; [8]
  XRPD after stability assessment at 4° C.: Pattern 5
  XRPD after stability assessment at 50° C.: Pattern 5
[5]; EtOAc/EtOH (3:1)
  Observations Overnight at 4° C. maturation: solution
  Observations Overnight at 50° C. maturation: solution + yellow solid
[5]; [9]
  XRPD after stability assessment at 4° C.: Pattern 5
  XRPD after stability assessment at 50° C.: Pattern 5
[5]; EtOH
  XRPD after stability assessment at 4° C.: Pattern 5
  Observations Overnight at 4° C. maturation: White Suspension
  Observations Overnight at 50° C. maturation: solution
[5]; EtOH, solid after evaporation at r.t.
  XRPD after stability assessment at 50° C.: Pattern 5
[5]; Heptane
  XRPD after stability assessment at 4° C.: Pattern 5
  Observations Overnight at 4° C. maturation: White Suspension
  XRPD after stability assessment at 50° C.: Pattern 5
  Observations Overnight at 50° C. maturation: White Suspension
[5]; IPA
  XRPD after stability assessment at 4° C.: Pattern 5
  Observations Overnight at 4° C. maturation: White Suspension
  Observations Overnight at 50° C. maturation: solution + yellow solid
[5]; IPA, solid after evaporation at r.t.
  XRPD after stability assessment at 50° C.: Pattern 5
[5]; MIBK
  XRPD after stability assessment at 4° C.: Pattern 5
  Observations Overnight at 4° C. maturation: Off-White Suspension
  Observations Overnight at 50° C. maturation: solution
[5]; MIBK, solid after evaporation at r.t.
  XRPD after stability assessment at 50° C.: Pattern 5
[5]; TBME
  XRPD after stability assessment at 4° C.: Pattern 5
  Observations Overnight at 4° C. maturation: White Suspension
  XRPD after stability assessment at 50° C.: Pattern 5
  Observations Overnight at 50° C. maturation: White Suspension
